The values that follow come from PMC7290078, “Agonist bias and agonist‐dependent antagonism at corticotrophin releasing factor receptors” (Pharmacology Research & Perspectives, 2020).

Where two headings read alike, the source gives them in different places. No end group written: not given here.

For one assay, the system named is CRF receptor type 1. Further details: method as in PMID 17057757. Conditions: blockade of UCN1; cited from earlier work.
Assay [1] addresses T1, CRF1 receptor (hCRF1α) (Homo sapiens, UniProt P34998).
T1 construct: host or cells: Cos7 cells, transient transfection (PEI), pcDNA3.0/3.1 vector
T1 sequence (P34998 24-415): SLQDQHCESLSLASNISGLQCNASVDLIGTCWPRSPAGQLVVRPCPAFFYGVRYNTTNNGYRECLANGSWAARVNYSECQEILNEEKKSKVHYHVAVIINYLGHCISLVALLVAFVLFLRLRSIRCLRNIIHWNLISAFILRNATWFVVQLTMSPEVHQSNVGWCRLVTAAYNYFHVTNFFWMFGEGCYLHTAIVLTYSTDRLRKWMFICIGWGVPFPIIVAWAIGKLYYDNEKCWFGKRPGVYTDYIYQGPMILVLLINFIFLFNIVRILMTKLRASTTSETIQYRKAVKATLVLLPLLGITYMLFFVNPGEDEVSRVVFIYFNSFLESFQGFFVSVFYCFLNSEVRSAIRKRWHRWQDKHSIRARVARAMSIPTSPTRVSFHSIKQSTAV
In words: cAMP accumulation (LANCE) in Cos7 cells transfected with hCRF1α, agonist stimulation. The assay is classed as cell-based. Conditions: cAMP, CRF1 receptor, antagonist alone, n = 3. The text has this: (§1) Plasmids containing hCRF1α and hCRF2α (GenBank accession numbers AY457172 and AY449734) were obtained from the cDNA Resource Centre (Bloomsburg University) and are referred to as CRF1 and CRF2 in this manuscript. Hemagglutinin (HA) epitope‐tagged human Calcitonin (CT) receptor (CT(a) splice variant) and myc‐tagged human RAMP1 were used as described previously. ^27 HA‐tagged human calcitonin receptor‐like receptor (CLR), N‐terminal FLAG‐tagged human RAMP3 and N‐terminal myc‐tagged human RAMP3 were a gift from Professor David Poyner (Aston University) and Professor Patrick Sexton (Monash University), respectively. N‐terminal FLAG‐tagged human RAMP2 was used as described previously. ^28 All receptors and RAMPs were cloned in pcDNA3.0 or pcDNA3.1 plasmid vectors. All plasmid inserts were sequenced at the Centre for Genomics, Proteomics and Metabolomics (University of Auckland) and the sequences were verified prior to use.
Cos7, HEK‐293S, and HEK‐293T cells were cultured as described previously. ^28 , ^29 Cos7 cells were originally supplied by the ATCC to Associate Professor Nigel Birch (University of Auckland). HEK‐293S cells were a gift from Professor David Poyner (Aston University) and HEK‐293T cells a gift from Professor John Taylor (University of Auckland). Briefly, all cell lines were cultured in Dulbecco's Modified Eagle Medium (DMEM) supplemented with 8% heat inactivated fetal bovine serum (FBS) and maintained in a humidified incubator at 37°C with 5% CO2. For transfection, cells were counted (Countess CounterTM; Life Technologies) and plated at a density of 20 000 cells per well in 96‐well plates. The cells were transiently transfected 48 hours prior to assaying using polyethylenimine (PEI), as described previously. ^28 , ^29 In all experiments a total of 0.25 μg DNA was transfected per well. In the majority of experiments 0.25 μg DNA of receptor‐containing plasmid or the pcDNA3.1 plasmid without an insert was used. For experiments involving RAMPs, 0.125 μg of receptor DNA and 0.125 μg of RAMP‐containing plasmid DNA were transfected to give a 1:1 ratio of receptor to RAMP. […]
cAMP accumulation in Cos7 cells transfected with hCRF1α or hCRF2α receptors was measured using the LANCE cAMP detection assay kit (PerkinElmer Life and Analytical Sciences) as described previously. ^30 Briefly, culture media was removed and replaced with DMEM containing 0.1% bovine albumin serum (BSA) and 1 mmol/L 3‐isobutyl‐1‐methylxanthine (IBMX) for 30 minutes at 37°C. […] Samples were shaken for 15 minutes before 5 µL cell lysate was transferred to a white 384‐well optiplate and processed for cAMP quantification as described previously. ^31 Samples were read using an Envision plate reader (PerkinElmer). cAMP concentrations were determined from a standard curve generated in duplicate. […]

Assay [2] concerns the target T2, CRF2 receptor (hCRF2α) (Homo sapiens, UniProt Q13324).
T2 construct: host or cells: Cos7 cells, transient transfection (PEI), pcDNA3.0/3.1 vector
T2 sequence (Q13324 1-411): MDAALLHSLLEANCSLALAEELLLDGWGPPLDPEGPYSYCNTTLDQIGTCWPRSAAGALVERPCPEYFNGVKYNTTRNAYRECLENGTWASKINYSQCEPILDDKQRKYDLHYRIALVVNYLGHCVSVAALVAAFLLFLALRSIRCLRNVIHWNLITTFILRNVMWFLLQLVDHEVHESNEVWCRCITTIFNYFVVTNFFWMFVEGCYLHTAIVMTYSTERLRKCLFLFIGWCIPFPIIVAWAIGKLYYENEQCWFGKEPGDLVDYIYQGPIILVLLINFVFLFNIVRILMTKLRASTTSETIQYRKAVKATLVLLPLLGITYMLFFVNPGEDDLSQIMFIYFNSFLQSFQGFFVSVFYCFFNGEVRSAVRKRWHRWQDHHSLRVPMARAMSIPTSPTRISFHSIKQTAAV
In words: cAMP accumulation (LANCE) in Cos7 cells transfected with hCRF2α, agonist stimulation. Format: cell-based. Conditions: COS-7; cAMP, CRF2 receptor, antagonist alone; n = 3; read-out: E max (partial agonism of antagonist).
Excerpt: as §1
(§2) Cos7, HEK‐293S, and HEK‐293T cells were cultured as described previously. ^28 , ^29 Cos7 cells were originally supplied by the ATCC to Associate Professor Nigel Birch (University of Auckland). HEK‐293S cells were a gift from Professor David Poyner (Aston University) and HEK‐293T cells a gift from Professor John Taylor (University of Auckland). Briefly, all cell lines were cultured in Dulbecco's Modified Eagle Medium (DMEM) supplemented with 8% heat inactivated fetal bovine serum (FBS) and maintained in a humidified incubator at 37°C with 5% CO2. For transfection, cells were counted (Countess CounterTM; Life Technologies) and plated at a density of 20 000 cells per well in 96‐well plates. The cells were transiently transfected 48 hours prior to assaying using polyethylenimine (PEI), as described previously. ^28 , ^29 In all experiments a total of 0.25 μg DNA was transfected per well. In the majority of experiments 0.25 μg DNA of receptor‐containing plasmid or the pcDNA3.1 plasmid without an insert was used. For experiments involving RAMPs, 0.125 μg of receptor DNA and 0.125 μg of RAMP‐containing plasmid DNA were transfected to give a 1:1 ratio of receptor to RAMP. Where the RAMP or receptor were transfected alone, the ratio of DNA was made up with the pcDNA3.1 plasmid.
(§3) cAMP accumulation in Cos7 cells transfected with hCRF1α or hCRF2α receptors was measured using the LANCE cAMP detection assay kit (PerkinElmer Life and Analytical Sciences) as described previously. ^30 Briefly, culture media was removed and replaced with DMEM containing 0.1% bovine albumin serum (BSA) and 1 mmol/L 3‐isobutyl‐1‐methylxanthine (IBMX) for 30 minutes at 37°C. Cells were incubated for an additional 15 minutes at 37°C with media or agonist concentrations of 1 pmol/L to 1 µmol/L for agonist only assays or 10 pmol/L to 10 µmol/L concentrations for antagonist experiments. Antagonists were added simultaneously or immediately prior to the addition of agonists. To stop cell stimulation and extract cAMP, the contents of the wells were replaced with 50 µL absolute ethanol. Samples were left at −20°C for a minimum of 10 minutes. The ethanol was evaporated and replaced with 50 µL of cAMP detection buffer. Samples were shaken for 15 minutes before 5 µL cell lysate was transferred to a white 384‐well optiplate and processed for cAMP quantification as described previously. ^31 Samples were read using an Envision plate reader (PerkinElmer). cAMP concentrations were determined from a standard curve generated in duplicate.
(§4) In all experiments the position of peptides and antagonists (pharmacology) or transfected receptors (ELISAs) on assay plates was randomized during each independent experiment, which are independent biological replicates. In all cases, duplicate, triplicate, or quadruplicate technical replicates were conducted for each independent experiment.

For assay [3], the target named is T1, CRF1 receptor (hCRF1α). Kind of assay: Antagonism of agonist-mediated cAMP accumulation in Cos7 cells expressing CRF1 receptors. The assay is classed as cell-based. Conditions: for Kb: hCRF1α, global Schild analysis, mean ± SEM, read-out: antagonist potency (pKB) (converted).
The target of assay [4] is T2, CRF2 receptor (hCRF2α). Kind of assay: Antagonism of agonist-mediated cAMP accumulation in Cos7 cells expressing CRF2 receptors. Conditions: for Kb: hCRF2α, global Schild analysis, mean ± SEM, n = 5, read-out: antagonist potency (pKB) (converted). The assay is classed as cell-based.
Excerpt: as §1, §2, §3, §4

In the next assay the test system is CRF2 receptor. Conditions: cited from earlier work.

As to `CCCCN(CC)c1nc(C)nc2c1c(C)c(C)n2-c1c(C)cc(C)cc1C` [antalarmin], in the assay with CRF receptor type 1, the “mode of antagonism of Gαi activity” value was “non‐competitive antagonist of Gαi activity” and the “mode of antagonism of Gαs activity” value is listed as “competitive antagonist of Gαs”.

`CCCC[C@H](NC(=O)[C@H](CCCCN)NC(=O)[C@H](CCCNC(=N)N)NC(=O)[C@H](CC(C)C)NC(=O)[C@](C)(CC(C)C)NC(=O)[C@H](Cc1c[nH]cn1)NC(=O)[C@@H](Cc1ccccc1)NC(=O)[C@H](CO)NC(=O)[C@H](CC(C)C)NC(=O)[C@H](CC(=O)O)NC(C)=O)C(=O)N[C@H](C(=O)N[C@@H](CCC(=O)O)C(=O)N[C@H](C(=O)N[C@@H](CCC(=O)O)C(=O)N[C@@H](CCCCN)C(=O)N[C@@H](CCC(N)=O)C(=O)N[C@@H](CCC(=O)O)C(=O)N[C@@H](CCCCN)C(=O)N[C@@H](CCC(=O)O)C(=O)N[C@@H](CCCCN)C(=O)N[C@@H](CCC(N)=O)C(=O)N[C@@H](CCC(N)=O)C(=O)N[C@@H](C)C(=O)N[C@H]1CCC(=O)NCCCC[C@@H](C(=O)N[C@@H](CC(C)C)C(=O)N[C@@H](CC(C)C)C(=O)N[C@@H](CC(C)C)C(=O)N[C@@H](CC(=O)O)C(=O)N[C@@](C)(CC(C)C)C(=O)N[C@H](C(N)=O)[C@@H](C)CC)NC(=O)[C@H](CC(N)=O)NC(=O)[C@H](CC(N)=O)NC1=O)[C@@H](C)CC)[C@@H](C)CC` [astressin2B]: at CRF1 receptor (hCRF1α) [1], the partial agonism result is listed as “this was not the case at the CRF1 receptor”. Further, the Emax at CRF2 receptor (hCRF2α) [2] is 11%. Moreover, the Kb was 0.479 µM on CRF1 receptor (hCRF1α) [3] (agonist CRF, cAMP, n = 5); over 5.01 µM at CRF1 receptor (hCRF1α) [3] (agonist UCN1, cAMP, n = 5 (CP‐376,395), n = 3 (astressin2B)); 0.000302 µM on CRF2 receptor (hCRF2α) [4] (agonist CRF, cAMP); 0.00363 µM at CRF2 receptor (hCRF2α) [4] (agonist UCN1, cAMP). At CRF1 receptor (hCRF1α) [3] (up to 5 μmol/L, CRF1 receptor), the “antagonism of UCN1‐mediated cAMP signaling” value was “did not measurably antagonize”. For the same compound, the “potency against CRF‐mediated relative to UCN1‐mediated cAMP signaling” value on CRF2 receptor (hCRF2α) [4] (CRF2 receptor) is on record as “approximately 10 fold”. Moreover, the “potency at CRF2 receptor compared to CRF1 receptor” value at CRF2 receptor (hCRF2α) [4] (antagonism of either CRF or UCN1‐induced cAMP signaling) was “at least 1000 fold”. For the same compound, the selectivity entry in the assay with CRF2 receptor is listed as “selective antagonist of the CRF2 receptor”.

As for “DLTFHLLREMLEMAKAEQEAEQAALNRLLLEEA-NH2 [α‐helical CRF(9‐41)] [listing 1 of 2 here]”, at CRF1 receptor (hCRF1α) [1] (COS-7, read-out: E max (partial agonism of antagonist)), the Emax is 14.8%.

In the case of “DLTFHLLREMLEMAKAEQEAEQAALNRLLLEEA-NH2 [α‐helical CRF(9‐41)] [listing 2 of 2 here]”, the Kb on CRF1 receptor (hCRF1α) [3] (agonist CRF, cAMP, n = 5) is 0.17 µM; on CRF2 receptor (hCRF2α) [4] (agonist CRF, cAMP) it was 0.0186 µM.
